Results: publication PMC11597879, “In Silico and In Vitro Investigation of Cytotoxicity and Apoptosis of Acridine/Sulfonamide Hybrids Targeting Topoisomerases I and II” (Pharmaceuticals, 2024)

Key:
Topo-I = target: T1, Topo-I (Homo sapiens, UniProt P11387); assay: Topoisomerase I inhibitory assay (supercoiled DNA, gel electrophoresis); assay type: biochemical; details: supercoiled DNA substrate, 37 °C 30 min
T1 construct: purchased TopoGEN, Inc. (Columbus, OH, USA) TG1018-1A
T1 sequence (P11387 1-765): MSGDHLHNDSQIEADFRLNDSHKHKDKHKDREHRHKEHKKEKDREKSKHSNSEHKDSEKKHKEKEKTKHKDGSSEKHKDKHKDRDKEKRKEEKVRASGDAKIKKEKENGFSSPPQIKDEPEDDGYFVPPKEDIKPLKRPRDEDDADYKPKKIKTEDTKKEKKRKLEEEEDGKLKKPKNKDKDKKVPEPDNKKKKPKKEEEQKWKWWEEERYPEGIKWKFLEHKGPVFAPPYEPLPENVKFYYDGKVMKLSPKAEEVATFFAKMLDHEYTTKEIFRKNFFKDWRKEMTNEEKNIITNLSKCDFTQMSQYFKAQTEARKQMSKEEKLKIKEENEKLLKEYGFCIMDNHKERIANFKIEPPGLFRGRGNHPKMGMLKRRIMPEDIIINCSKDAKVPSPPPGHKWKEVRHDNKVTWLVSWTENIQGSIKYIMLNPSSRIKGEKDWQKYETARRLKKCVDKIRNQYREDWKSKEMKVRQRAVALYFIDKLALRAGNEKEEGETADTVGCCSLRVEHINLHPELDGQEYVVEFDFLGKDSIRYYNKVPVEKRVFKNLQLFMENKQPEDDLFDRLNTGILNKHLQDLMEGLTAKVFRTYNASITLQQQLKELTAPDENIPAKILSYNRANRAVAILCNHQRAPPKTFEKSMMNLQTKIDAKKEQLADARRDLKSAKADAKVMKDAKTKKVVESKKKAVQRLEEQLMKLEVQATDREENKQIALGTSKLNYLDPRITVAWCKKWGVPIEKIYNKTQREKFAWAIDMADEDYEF
From the text: (§1) Subsequently, these compounds were employed to evaluate their capacity to inhibit topoisomerase activity at the established IC50, using supercoiled DNA as a substrate. The resulting DNA products were separated via 1% gel electrophoresis and stained with ethidium bromide. […] To evaluate the catalytic activity of Topo-I, supercoiled DNA served as the substrate. Commercial samples of Topo I and supercoiled DNA were provided by […], TopoGEN, Inc. (Columbus, OH, USA).
To visualize the cleavage products after incubation, we used 1% agarose gel electrophoresis to separate the samples.

MCF-7 cells = system: MCF-7 cells; design: method as in earlier work; details: MTT, 48 h exposure; cited from earlier work
HCT-116 cells = system: HCT-116 cells; design: method as in earlier work; details: MTT, 48 h exposure; cited from earlier work
HepG2 cells [1] = system: HepG2 cells; design: method as in earlier work; details: MTT, 48 h exposure; read-out: IC50 HepG-2; cited from earlier work
human Topo-II = target: T2, human Topo-II (Homo sapiens, UniProt P11388); assay: Topoisomerase II inhibitory assay (supercoiled pHot1 DNA, gel electrophoresis); assay type: biochemical; details: 37 °C 30 min
T2 construct: purchased TopoGEN TG1009
T2 sequence (P11388 whole entry): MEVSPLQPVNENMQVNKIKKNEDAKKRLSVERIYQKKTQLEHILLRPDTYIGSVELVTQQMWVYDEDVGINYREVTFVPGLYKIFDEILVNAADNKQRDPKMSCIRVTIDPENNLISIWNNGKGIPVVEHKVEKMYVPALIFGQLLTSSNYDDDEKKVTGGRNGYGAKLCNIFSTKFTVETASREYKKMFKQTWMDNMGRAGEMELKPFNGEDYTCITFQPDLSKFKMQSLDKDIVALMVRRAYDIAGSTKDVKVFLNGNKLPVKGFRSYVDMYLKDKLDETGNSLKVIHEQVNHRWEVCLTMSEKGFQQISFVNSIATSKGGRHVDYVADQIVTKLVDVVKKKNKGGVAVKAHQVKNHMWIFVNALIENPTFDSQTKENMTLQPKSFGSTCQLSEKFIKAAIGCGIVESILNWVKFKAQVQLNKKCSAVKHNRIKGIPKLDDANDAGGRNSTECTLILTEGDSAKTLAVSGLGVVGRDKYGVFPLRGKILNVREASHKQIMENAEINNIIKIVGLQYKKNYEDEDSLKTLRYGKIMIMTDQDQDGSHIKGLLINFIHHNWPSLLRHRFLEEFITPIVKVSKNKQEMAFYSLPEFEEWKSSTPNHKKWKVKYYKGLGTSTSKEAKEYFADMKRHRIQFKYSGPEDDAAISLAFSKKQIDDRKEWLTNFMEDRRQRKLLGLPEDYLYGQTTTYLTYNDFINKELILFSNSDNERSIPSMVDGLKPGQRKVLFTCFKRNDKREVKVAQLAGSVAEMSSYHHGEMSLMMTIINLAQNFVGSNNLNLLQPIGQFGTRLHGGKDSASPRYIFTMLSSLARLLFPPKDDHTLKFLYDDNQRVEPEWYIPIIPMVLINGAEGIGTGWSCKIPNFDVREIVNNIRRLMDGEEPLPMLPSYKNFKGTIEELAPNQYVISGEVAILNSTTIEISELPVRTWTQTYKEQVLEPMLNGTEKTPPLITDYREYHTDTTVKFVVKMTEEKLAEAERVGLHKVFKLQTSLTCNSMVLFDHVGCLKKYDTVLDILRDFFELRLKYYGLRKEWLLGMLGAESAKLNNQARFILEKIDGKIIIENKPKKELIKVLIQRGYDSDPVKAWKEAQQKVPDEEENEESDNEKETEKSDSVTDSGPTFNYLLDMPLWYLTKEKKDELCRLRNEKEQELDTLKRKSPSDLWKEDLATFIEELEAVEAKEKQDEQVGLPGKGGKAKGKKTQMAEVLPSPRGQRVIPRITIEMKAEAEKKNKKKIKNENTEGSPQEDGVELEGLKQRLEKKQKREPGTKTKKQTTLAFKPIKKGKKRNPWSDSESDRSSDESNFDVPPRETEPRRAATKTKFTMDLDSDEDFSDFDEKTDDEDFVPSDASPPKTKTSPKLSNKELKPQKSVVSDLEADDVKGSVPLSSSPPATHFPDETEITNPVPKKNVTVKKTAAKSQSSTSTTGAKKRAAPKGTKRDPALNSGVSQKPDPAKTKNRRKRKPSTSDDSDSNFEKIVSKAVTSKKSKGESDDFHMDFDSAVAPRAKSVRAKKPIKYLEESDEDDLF
From the text: as §1
To assess the Topo-II activity, a typical enzyme reaction was set up using human Topo-II, supercoiled pHot1 DNA as the substrate, the test drug, and the assay buffer. […] Following that, the DNA was stained and ran on a 1% agarose gel for one to two hours using a Bio-Rad gel electrophoresis apparatus. Both supercoiled and linear DNA strands were included in the gel to serve as indicators for DNA-Topo-II intercalation.

THLE-2 cell line = assay: MTT cytotoxicity against normal cell line THLE-2; assay type: cell-based, human; details: normal liver epithelial cells
Method: These cells were cultured in Dulbecco’s Modified Eagle’s Medium (DMEM) from Invitrogen/Life Technologies, supplemented with 10% Hyclone fetal bovine serum, […], and 1% penicillin and streptomycin. For experimental purposes, the cells were seeded in 96-well tissue culture plates at an approximate density of 5 × 10^3 cells per well and were allowed to incubate overnight. The following day, the culture medium was replaced with fresh medium containing varying concentrations of the synthesized compounds to be tested for their toxicity. After 48 h of exposure, the medium was removed, and the cells were washed twice with phosphate-buffered saline (PBS). A new medium containing MTT solution was added, and the cells were further incubated for 4 h. The cellular viability and toxicity in response to each compound were determined using ELISA microplate reader- Bioline by measuring the absorbance at a wavelength of 450 nm.

HepG2 cells [2] = assay: Cell cycle analysis (PI, flow cytometry); details: HepG2, 24 h treatment, DNA content percentage
Method: Subsequently, the cells were harvested, fixed in 70% ethanol, and incubated for 12 h at 4 °C. After fixation, the cells were centrifuged, and the cell pellets were washed and resuspended in 0.5 mL of cold phosphate-buffered saline (PBS). The cells were then stained with 5 μg/mL of propidium iodide (PI; Sigma, Panama City, Panama), and the DNA content was determined using a BD FACSCalibur flow cytometer (Becton Dickinson, Franklin Lakes, NJ, USA). Data analysis was performed using CellQuest software, and 10,000 events were analyzed for each sample.

HepG2 cells [3] = assay: Annexin V-FITC/PI apoptosis assay; assay type: cell-based, human; details: for apoptosis as extent of the level observed with SAHA / necrosis as extent of the level observed with SAHA: HepG2, relative to SAHA positive control; for cells in early apoptotic stage: lower right quadrant; for cells in late apoptotic stage: upper right quadrant
Method: An Annexin V-FITC assay was utilized to detect apoptosis in HepG2 cells. The cells were exposed to compounds 8b (3.4 µM) and 7c (7.3 µM) for 24 h, with untreated cells and cells treated with SAHA serving as negative and positive controls, respectively. After staining with propidium iodide (PI) and Annexin V-FITC, cell apoptosis was assessed via flow cytometry.

[4] = HepG2, 8b 3.4 µM, 7c 7.3 µM, 24 h (Figure 2 legend: 72 h)

| Compound | IC50 (Topo-I) [µM] | IC50 (human Topo-II) [µM] | IC50 (MCF-7 cells) [µM] | IC50 (HCT-116 cells) [µM] | IC50 (HepG2 cells [1]) [µM] | also measured |
| --- | --- | --- | --- | --- | --- | --- |
| O=[N+]([O-])c1ccccc1S(=O)(=O)Nc1ccc(Cc2ccc(Nc3c4ccccc4nc4ccccc34)cc2)cc1 [Compound 7a] | 18.4 ± 1 | 8.07 ± 0.44 | 88.4 ± 5.1 | 72.2 ± 4.7 | 62.3 ± 4.4 | melting point: 172 °C |
| COc1cccc2c1C(=O)c1c(O)c3c(c(O)c1C2=O)C[C@@](O)(C(=O)CO)C[C@@H]3O[C@H]1C[C@H](N)[C@H](O)[C@H](C)O1 [Doxorubicin, reference compound] | – | – | – | – | 4.5 ± 0.2 | – |
| Cc1ccc(S(=O)(=O)Nc2ccc(Cc3ccc(Nc4c5ccccc5nc5ccccc45)cc3)cc2)cc1 [Compound 7b] | 82.5 ± 4.49 | 234 ± 12.7 | 73.8 ± 4.5 | 88.5 ± 4.8 | 93.6 ± 5.3 | melting point: > 250 °C |
| S=C(Nc1ccccc1)Nc1ccc(Nc2c3ccccc3nc3ccccc23)cc1 [Compound 6b] | 4.17 ± 0.23 | 24.5 ± 1.34 | 16.5 ± 1.5 | 13.1 ± 1.2 | 18 ± 1.7 | – |
| S=C(Nc1ccccc1)Nc1ccc(Cc2ccc(Nc3c4ccccc4nc4ccccc34)cc2)cc1 [Compound 6a] | 27.6 ± 1.5 | 101 ± 5.51 | 40.9 ± 3.8 | 47.2 ± 3.9 | 36.7 ± 3.5 | – |
| O=S(=O)(Nc1ccc(Cc2ccc(Nc3c4ccccc4nc4ccccc34)cc2)cc1)c1ccc(N=Nc2ccccc2)cc1 [Compound 7d] | 7.67 ± 0.42 | 21.6 ± 1.18 | 33.6 ± 3.3 | 58 ± 4.3 | 45.5 ± 3.9 | – |
| Nc1ccc(Nc2c3ccccc3nc3ccccc23)cc1 [Compound 5b] | – | – | 5.88 ± 0.4 | 8.93 ± 0.8 | 8.3 ± 0.7 | – |
| CC(C)c1cc(C(C)C)c(S(=O)(=O)Nc2ccc(Cc3ccc(Nc4c5ccccc5nc5ccccc45)cc3)cc2)c(C(C)C)c1 [Compound 7e] | 42.2 ± 2.29 | 38.7 ± 2.1 | 50.8 ± 4 | 66.7 ± 4.5 | 55.4 ± 4.2 | – |
| N.N.[Cl][Pt][Cl] [Cisplatin, reference compound] | 5.71 ± 0.31 | 11.3 ± 0.62 | – | – | – | – |
| CC(=O)Nc1ccc(S(=O)(=O)Nc2ccc(Cc3ccc(Nc4c5ccccc5nc5ccccc45)cc3)cc2)cc1 [Compound 7c] | 16.6 ± 0.9 | 7.33 ± 0.4 | 29.1 ± 2.7 | 40.6 ± 3.7 | 31.1 ± 3.1 | IC50 (THLE-2 cell line; Homo sapiens, THLE-2, 48 h): 55.5 µM; IC50 (THLE-2 cell line; 48 h): 104 ± 5.86 µM; %G2/M (HepG2 cells [2]): 28.12%; %Pre-G1 (HepG2 cells [2]): 19.61%; %S (HepG2 cells [2]): 29.27%; G0–G1 (HepG2 cells [2]): 42.61%; apoptosis as extent of the level observed with SAHA (HepG2 cells [3]): 55%; necrosis as extent of the level observed with SAHA (HepG2 cells [3]): 88%; cells in early apoptotic stage (HepG2 cells [3]; [4]): 1.6%; cells in necrotic stage (HepG2 cells [3]; HepG2, 8b 3.4 µM, 7c 7.3 µM, 24 h (Figure 2 legend: 72 h), upper left quadrant): 5.9%; cells in late apoptotic stage (HepG2 cells [3]; [4]): 12% |
| O=C(CCCCCCC(=O)Nc1ccccc1)NO [SAHA, reference compound] | – | – | – | – | – | IC50 (THLE-2 cell line; 48 h): 33.6 ± 1.89 µM; %G2/M (HepG2 cells [2]): 6.59%; %Pre-G1 (HepG2 cells [2]): 34.12%; %S (HepG2 cells [2]): 46.39%; G0–G1 (HepG2 cells [2]): 47.02% |

Continued, in another order:

| IC50 (Topo-I) [µM] | IC50 (human Topo-II) [µM] | Compound | IC50 (MCF-7 cells) [µM] | IC50 (HCT-116 cells) [µM] | IC50 (HepG2 cells [1]) [µM] | also measured |
| --- | --- | --- | --- | --- | --- | --- |
| 3.41 ± 0.19 | 16.2 ± 0.88 | Cc1ccc(S(=O)(=O)Nc2ccc(Nc3c4ccccc4nc4ccccc34)cc2)cc1 [Compound 8b] | 8.83 ± 0.9 | 9.39 ± 0.9 | 14.5 ± 1.4 | IC50 (THLE-2 cell line; Homo sapiens, THLE-2, 48 h): 104 µM; IC50 (THLE-2 cell line; 48 h): 55.5 ± 3.13 µM; %G2/M (HepG2 cells [2]): 9.66%; %Pre-G1 (HepG2 cells [2]): 26.95%; %S (HepG2 cells [2]): 39.15%; G0–G1 (HepG2 cells [2]): 51.19%; apoptosis as extent of the level observed with SAHA (HepG2 cells [3]): 79%; necrosis as extent of the level observed with SAHA (HepG2 cells [3]): 46%; cells in early apoptotic stage (HepG2 cells [3]; [4]): 3.5%; cells in late apoptotic stage (HepG2 cells [3]; [4]): 19.6% |
| 11.9 ± 0.65 | 32.7 ± 1.78 | CC(C)c1cc(C(C)C)c(S(=O)(=O)Nc2ccc(Nc3c4ccccc4nc4ccccc34)cc2)c(C(C)C)c1 [Compound 8d] | 19.7 ± 1.7 | 29.9 ± 2.8 | 23.1 ± 2.2 | – |
| 15 ± 0.81 | 10.9 ± 0.59 | O=[N+]([O-])c1ccccc1S(=O)(=O)Nc1ccc(Nc2c3ccccc3nc3ccccc23)cc1 [Compound 8a] | 10.5 ± 1 | 15.2 ± 1.6 | 20.6 ± 1.8 | – |
| 21.4 ± 1.17 | 22 ± 1.2 | O=S(=O)(Nc1ccc(Nc2c3ccccc3nc3ccccc23)cc1)c1ccc(N=Nc2ccccc2)cc1 [Compound 8c] | 25.5 ± 2.4 | 35.7 ± 3.4 | 22.4 ± 2 | – |
